According to patent US20150045610A1, “METHOD OF MODIFYING SPERMATOGENESIS, SPERMIOGENESIS AND/OR FERTILITY IN MAMMALS” (Monell Chemical Senses Center, priority 2012, published 2015):

Target: T1, humanized mhT1R3 (Homo sapiens, UniProt Q7RTX0, A109T/A120V/A176D/A197V/A198V/A228S/A231N/A248T/A280V/A282S/A302S/A412V/A417V/A46T/A537T/C375D/D124S/D249S/D250G/D364H/D419E/D470T/D491G/D88A/DEL352-352/DEL488-489/E172D/E199T/E203N/E217D/E356N/E45S/E481Q/E505D/E525K/E545Q/F540P/F555L/G168S/G205S/G311T/G314N/G355L/G360D/G414H/G438R/G439D/G463S/G50T/G542N/H261R/H278R/H281Y/H332P/I485M/I536F/INS376MLQNLSSG/K32Q/K339E/K422L/K494V/K86G/L173R/L245Q/L272V/L29F/L354S/L385Q/L433M/L458M/L483S/L71F/L74M/M151L/M315I/M318V/M31A/N285S/N386L/N532H/N68L/P112S/P246H/P335S/P416H/P420H/P441T/P60I/Q221E/Q257L/Q317R/Q330L/Q336H/Q359L/Q372R/Q418S/Q504K/Q531K/R123Q/R247D/R252Q/R291G/R30K/R357A/R443Q/R467V/R473T/R479Q/R482Q/R486Y/R498Q/R52N/R550K/R553A/R556P/R560K/R56Q/S251Q/S267K/S289H/S290H/S392A/S446A/S447E/S464P/S477T/S490P/S53Q/S559P/S58N/S67P/T195Q/T346A/T377L/T390I/T434S/T480L/T63N/V152I/V277A/V366M/V36I/V381L/V393T/V437A/V465T/V61P/W72L)
T1 construct: the extracellular domain is of mouse origin and the transmembrane and intracellular domains of human origin; mouse T1R3 extracellular domain (fusion partner replacing the human extracellular domain); expressed in transfected cells; host or cells: transgenic mice (Line 7, 9, 7c) on T1R3-null background; transgene under 13 kb T1R3 promoter, followed by IRES-eGFP
T1 sequence (Q7RTX0 with tags, fused parts or gaps L29F/R30K/M31A/K32Q/V36I/E45S/A46T/G50T/R52N/S53Q/R56Q/S58N/P60I/V61P/T63N/S67P/N68L/L71F/W72L/L74M/K86G/D88A/A109T/P112S/A120V/R123Q/D124S/M151L/V152I/G168S/E172D/L173R/A176D/T195Q/A197V/A198V/E199T/E203N/G205S/E217D/Q221E/A228S/A231N/L245Q/P246H/R247D/A248T/D249S/D250G/S251Q/R252Q/Q257L/H261R/S267K/L272V/V277A/H278R/A280V/H281Y/A282S/N285S/S289H/S290H/R291G/A302S/G311T/G314N/M315I/Q317R/M318V/Q330L/H332P/P335S/Q336H/K339E/T346A/DEL352-352/L354S/G355L/E356N/R357A/Q359L/G360D/D364H/V366M/Q372R/C375D/INS376MLQNLSSG/T377L/V381L/L385Q/N386L/T390I/S392A/V393T/A412V/G414H/P416H/A417V/Q418S/D419E/P420H/K422L/L433M/T434S/V437A/G438R/G439D/P441T/R443Q/S446A/S447E/L458M/G463S/S464P/V465T/R467V/D470T/R473T/S477T/R479Q/T480L/E481Q/R482Q/L483S/I485M/R486Y/DEL488-489/S490P/D491G/K494V/R498Q/Q504K/E505D/E525K/Q531K/N532H/I536F/A537T/F540P/G542N/E545Q/R550K/R553A/F555L/R556P/S559P/R560K limits assumed): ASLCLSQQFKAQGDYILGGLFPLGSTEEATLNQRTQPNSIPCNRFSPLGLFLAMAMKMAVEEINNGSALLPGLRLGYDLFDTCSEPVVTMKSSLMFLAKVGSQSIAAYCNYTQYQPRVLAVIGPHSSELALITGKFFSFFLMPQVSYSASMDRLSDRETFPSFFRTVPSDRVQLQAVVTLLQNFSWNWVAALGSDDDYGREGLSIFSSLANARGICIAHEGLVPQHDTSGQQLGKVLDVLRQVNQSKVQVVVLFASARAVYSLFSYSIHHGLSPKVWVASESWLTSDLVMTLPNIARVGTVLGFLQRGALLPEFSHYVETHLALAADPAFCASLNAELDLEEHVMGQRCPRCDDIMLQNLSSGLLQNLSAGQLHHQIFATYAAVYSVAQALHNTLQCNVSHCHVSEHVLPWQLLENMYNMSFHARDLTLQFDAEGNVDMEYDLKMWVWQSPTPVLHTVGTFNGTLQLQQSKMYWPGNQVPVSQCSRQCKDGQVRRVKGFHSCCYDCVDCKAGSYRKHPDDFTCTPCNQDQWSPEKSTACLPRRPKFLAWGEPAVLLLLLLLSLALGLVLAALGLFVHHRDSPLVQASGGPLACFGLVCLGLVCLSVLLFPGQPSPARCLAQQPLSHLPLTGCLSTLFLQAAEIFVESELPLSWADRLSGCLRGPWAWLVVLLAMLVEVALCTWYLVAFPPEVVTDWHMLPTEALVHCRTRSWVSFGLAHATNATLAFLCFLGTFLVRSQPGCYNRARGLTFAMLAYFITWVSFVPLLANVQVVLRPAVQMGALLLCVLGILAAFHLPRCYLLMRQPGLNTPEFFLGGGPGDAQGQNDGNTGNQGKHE
T1 sequence (Q925I4 20-843 partner): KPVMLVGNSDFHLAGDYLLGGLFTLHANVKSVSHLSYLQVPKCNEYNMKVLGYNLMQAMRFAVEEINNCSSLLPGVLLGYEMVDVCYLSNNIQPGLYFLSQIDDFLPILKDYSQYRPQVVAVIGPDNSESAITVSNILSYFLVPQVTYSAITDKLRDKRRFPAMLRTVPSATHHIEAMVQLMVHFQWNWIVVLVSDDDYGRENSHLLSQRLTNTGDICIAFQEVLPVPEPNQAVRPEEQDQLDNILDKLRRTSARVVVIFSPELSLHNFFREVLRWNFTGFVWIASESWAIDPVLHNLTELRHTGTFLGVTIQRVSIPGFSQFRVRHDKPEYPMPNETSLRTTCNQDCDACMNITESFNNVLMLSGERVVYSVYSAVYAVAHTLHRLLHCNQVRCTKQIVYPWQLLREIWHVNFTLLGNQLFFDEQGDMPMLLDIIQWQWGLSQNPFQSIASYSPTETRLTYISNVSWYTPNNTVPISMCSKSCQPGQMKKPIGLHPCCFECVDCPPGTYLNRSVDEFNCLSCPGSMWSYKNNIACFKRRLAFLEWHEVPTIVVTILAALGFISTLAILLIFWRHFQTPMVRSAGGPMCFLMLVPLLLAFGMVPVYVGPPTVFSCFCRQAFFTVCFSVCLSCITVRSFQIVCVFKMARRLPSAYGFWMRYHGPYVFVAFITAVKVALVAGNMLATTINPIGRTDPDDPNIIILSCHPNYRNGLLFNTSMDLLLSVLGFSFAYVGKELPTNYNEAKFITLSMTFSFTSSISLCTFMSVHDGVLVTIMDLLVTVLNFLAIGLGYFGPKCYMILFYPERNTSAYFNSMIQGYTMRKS
Experiment: sweet taste preference of transgenic mice expressing humanized T1R3
Format: in vivo, mouse
Method: We used the chimeric mhT1R3 receptor to produce conventional transgenic animals. The DNA construct was injected into a genetically engineered mouse line that lacks endogenous T1R3 (T1R3KO or T1R3-null). […] We call these mice Line7.
For further crosses, we used the line 7 that has fewer copies of the transgene.
Such compounds may be produced normally in organs (e.g. in testis) or chemically synthesized.

## CC(C)(Oc1ccc(Cl)cc1)C(=O)O [clofibric acid]
1 mM clofibric acid
  sweet preference of Line 7 mice: blocked
Lines 7, 9, 7c expressing humanized receptor
  sweet responses of the transgenic animals: completely blocked
